How the values were obtained:
prostate cancer = test: Treatment of patients with prostate cancer (Working Examples); assay type: in vivo, human
[1] = tested on: PSA protein expression in LNCaP cells; test: PSA protein expression in LNCaP cells (immunoblot); assay type: cell-based; settings: nitric oxide synthesis inhibited; DHT 10 nmol/L 24 hours
Method: The experiments of Background Example 4 were repeated but instead of determining androgen receptor activation, PSA level was measured by PSA protein expression in LNCaP cells. LNCaP cells were incubated in phenol red-free RPMI cell culture medium containing 5% charcoal-stripped fetal bovine serum (CSS) for 48 hours and then treated with dihydrotestosterone (DHT) (10 nmol/L) or vehicle control (ethanol) for 24 hours. Immunoblots were conducted using anti-PSA antibodies to measure PSA protein expression. Same filters were immunoblotted using anti-actin antibodies as control to establish equal loading of proteins.

androgen receptor = settings: stimulated 24 hours
Method: A luciferase reporter assay as described in Kasbohm, E. A., et al., Journal of Biological Chemistry 289,11583-11589 (2005), was used to detect androgen receptor activation.
As a control, the following was carried out. Androgen receptor in the form of prostate cancer cells was incubated with androgen under the following conditions.
Cells were seeded in 100-mm dishes and transfected at 70% confluence using DMRIE-C Reagent (Invitrogen). Transfections were carried out with cDNAs encoding the probasin or ARR2 luciferase (1 μg) and SV40-Renilla luciferase reporter plasmid (Promega) (10 ng) together with empty vector or the indicated gene of interest using a total of 6 μg of DNA/plate. At the end of transfection, cells were equally divided into 6-well plates and allowed to attach. The culture medium was replaced after 24 hours with starvation medium (phenol red-free RPMI 1640 cell culture medium) containing 5% charcoal-stripped fetal bovine serum, 1% penicillin/streptomycin, and 10 mM HEPES buffer, pH 7.5), and identical cell populations, in duplicate, were stimulated with androgen or vehicle for an additional 24 hours. Luciferase activities in cell lysates were measured using the Dual Luciferase assay system (Promega; Madison, Wis.) and were normalized by the Renilla activities and protein concentrations of the samples.

LNCaP cells = settings: 5-10 nmol/L, 48 hours, wild type cells
Method: (§1) Cell proliferation was determined in cellular assays carried out as follows:
(§2) LNCaP cells (obtained from ATCC) and seeded at 2.5×10^4/well were incubated in charcoal-stripped serum for 24-48 hours prior to stimulation with DHT (5-10 nmole/L) for an additional 48 hours. The number of viable cells (that exclude trypan blue) was counted using a light microscope and a hemocytometer.

[2] = tested on: e-NOS overexpressing prostate cancer cells; settings: 5-10 nmol/L
Method: as §1, §2

breast cancer = test: Treatment of patient with breast cancer (Working Example X); assay type: in vivo, human; settings: person, 40 mg PO BID, over 6 months
[3] = molecular target: T1, androgen receptor protein (Homo sapiens, UniProt P10275); test: S-nitrosylation of purified androgen receptor, biotin switch assay; assay type: biochemical; settings: anaerobic conditions; GSH as control
T1 construct: purchased Cambridge Bioscience, England
T1 sequence (P10275 1-920): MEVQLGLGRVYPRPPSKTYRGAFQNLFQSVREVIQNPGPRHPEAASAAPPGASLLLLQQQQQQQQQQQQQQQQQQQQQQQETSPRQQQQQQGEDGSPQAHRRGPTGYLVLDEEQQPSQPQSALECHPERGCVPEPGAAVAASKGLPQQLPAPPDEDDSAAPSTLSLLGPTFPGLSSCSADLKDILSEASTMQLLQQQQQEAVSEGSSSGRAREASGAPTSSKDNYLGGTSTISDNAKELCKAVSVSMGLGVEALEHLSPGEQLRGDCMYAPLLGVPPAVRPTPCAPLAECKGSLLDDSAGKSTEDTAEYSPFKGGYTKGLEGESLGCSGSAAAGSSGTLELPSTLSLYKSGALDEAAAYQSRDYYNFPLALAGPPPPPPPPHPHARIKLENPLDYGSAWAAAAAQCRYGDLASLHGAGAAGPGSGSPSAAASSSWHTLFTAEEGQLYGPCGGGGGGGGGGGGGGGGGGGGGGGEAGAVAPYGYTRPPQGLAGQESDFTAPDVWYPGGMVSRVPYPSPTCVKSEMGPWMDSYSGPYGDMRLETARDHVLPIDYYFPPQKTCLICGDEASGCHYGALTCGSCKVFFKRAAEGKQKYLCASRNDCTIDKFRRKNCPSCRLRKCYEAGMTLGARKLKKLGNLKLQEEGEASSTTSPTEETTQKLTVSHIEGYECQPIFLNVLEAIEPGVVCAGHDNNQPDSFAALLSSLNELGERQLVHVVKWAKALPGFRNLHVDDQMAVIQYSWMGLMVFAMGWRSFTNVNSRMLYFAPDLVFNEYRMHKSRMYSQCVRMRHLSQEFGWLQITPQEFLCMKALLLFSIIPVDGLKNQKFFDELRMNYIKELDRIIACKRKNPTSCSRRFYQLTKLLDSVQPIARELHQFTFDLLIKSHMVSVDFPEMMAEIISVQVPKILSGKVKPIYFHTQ
Description: Purified androgen receptor protein (obtained from Cambridge Bioscience, England) was exposed to nitric oxide by means of contact with nitrosoglutathione (GSNO) under anaerobic conditions. Glutathione (GSH) was used as a control. […] Cell Biol 3, 193-197 (2001).

With `N[C@H](CCC(=O)N[C@H](CS)C(=O)NCC(=O)O)C(=O)O` [D-glutathione] the PSA level drop (prostate cancer; person, 150 mg orally 4 times/day, over 4 months) was 50%.

For `COC(=O)[C@@H](N)CCCNC(=N)N[N+](=O)[O-]` [L-NAME], the PSA expression [1] was “more PSA was expressed”.

`C[C@]12CCC(=O)C[C@@H]1CC[C@@H]1[C@@H]2CC[C@]2(C)[C@@H](O)CC[C@@H]12` [androgen, dihydrotestosterone] was tested, and the “androgen receptor activation by androgen (control case)” value (androgen receptor) was “activated androgen receptor”, the cell growth (LNCaP cells) was “increased cell growth” and the cell growth [2] was “no effect on cell growth”.

`CCNC(=O)[C@@H]1CCCN1C(=O)[C@H](CCCNC(=N)N)NC(=O)[C@H](CC(C)C)NC(=O)[C@@H](COC(C)(C)C)NC(=O)[C@H](Cc1ccc(O)cc1)NC(=O)[C@H](CO)NC(=O)[C@H](Cc1c[nH]c2ccccc12)NC(=O)[C@H](Cc1cnc[nH]1)NC(=O)[C@@H]1CCC(=O)N1` [busaralin] was tested, and the disease course (prostate cancer; person with body metastases, busaralin treatment) was “the disease progresses”.

With `O=[N+]([O-])O[C@H]1CO[C@H]2[C@@H]1OC[C@H]2O[N+](=O)[O-]` [isosorbide dinitrate] the PSA level (prostate cancer; person, 20 mg PO BID, over 3 months) was “stabilizes”.

In the case of `O=[N+]([O-])O[C@@H]1CO[C@H]2[C@@H]1OC[C@@H]2O` [isosorbide mononitrate], the lung metastases (breast cancer) is reported as “regress” and the PSA level decline (prostate cancer; person, 40 mg PO BID, 3 months) is reported as 50%.

With `O=[N+]([O-])OCC(CO[N+](=O)[O-])O[N+](=O)[O-]` [nitroglycerin] the “progression of the disease measured by PSA and bony metastases” value (prostate cancer; topical 0.8 mg/hour, after progression on busaralin) was “slows”.

In the case of `N[C@@H](CCC(=O)N[C@@H](CSN=O)C(=O)NCC(=O)O)C(=O)O` [nitrosoglutathione], the “S-nitrosylation of androgen receptor” value [3] is reported as “S-Nitrosylation of androgen receptor was detected” and the PSA level decrease (prostate cancer; human, in vivo, po) is reported as 50%.

From patent US20080025972A1, “Treating sex steriod responsive disorders” (priority 2006, published 2008)
